Source: patent US4575560A, “Insecticidal diaminoguanidine hydrazone compounds” (American Cyanamid Company, priority 1985, dated 1986)
Converted amounts (≈) assume the structure as drawn. Where a name gives a salt, the structure may show the parent alone.

How the values were obtained:
Southern Armyworm = experiment: Southern armyworm test, third-instar larvae on treated Sieva lima bean leaves; type: in vivo, Spodoptera eridania (Cramer); details: for Mortality Rating Southern Armyworm: third-instar larvae
Procedure: (§1) Test formulations and procedures used for evaluation are as follows:
(§2) A. 100 mg of the test material is weighed, placed in a funnel over a 113 g narrow-mouth bottle, rinsed into the bottle with a 35 mL scoop of acetone, followed by a 35 mL scoop of water and another 35 mL scoop of acetone to yield 1000 ppm in 65% acetone. If the material is not soluble, it is broken up with a glass rod and used as a suspension.
(§3) B. This stock solution ("A") is used to make 300 ppm solutions or suspensions by pipetting 30 mL of "A" into a bottle containing 70 mL of 50% acetone to yield 300 ppm. Further dilutions in 50% acetone are made as required.
(§4) C. Tests requiring 10 ppm acetone solutions: 1 mL of "A" is pipetted into 99 mL of acetone to yield 10 ppm. Additional dilutions are made using 50% acetone as required.
Southern Armyworm--Spodoptera eridania (Cramer)
A Sieva lima bean plant with just the primary leaves expanded to 1.91 cm is dipped for three seconds with agitation in the "A" solution of 1000 ppm and set in the hood to dry. Following this, one leaf is placed in a 9 cm petri dish which has a moist filter paper in the bottom and 10 third-instar armyworm larvae about 1 cm long. This dish is covered and held at 80° F., and 50% r.h. After two days, mortality counts and estimates of the amount of feeding are made. Compounds showing partial kill and/or inhibition of feeding are held for an extra day for further observations.
All compounds showing activity as defined above are retested, using the second leaf on the bean plant, after an interval of seven days from original treatment, as an assay of residual activity.

[1] = tested on: Tobacco Budworm 3rd Instar; experiment: Tobacco budworm secondary test, third-instar larvae on treated cotton cotyledons; type: in vivo, Heliothis virescens (Fabricus)
Procedure: Three cotton plants with just expanded cotyledons are dipped in 1000 ppm solution and placed in the hood to dry. When dry, each cotyledon is cut in half, and 10 are each placed in a 28 g plastic medicine cup containing a 1.25 cm dental wick saturated with water, and one third-instar budworm larva is added. The cup is capped and held for three days at 80° F., 50% relative humidity, after which mortality counts are made.

[2] = tested on: Tobacco Budworm 1st Instar; experiment: Tobacco budworm initial test, treated eggs / newly hatched (1st instar) larvae on treated cotton leaves; type: in vivo, Heliothis virescens (Fabricus); details: 300 ppm
Procedure: as §1, §2, §3, §4
Tobacco Budworm--Heliothis virescens (Fabricus)
A cotton plant with two true leaves expanded is dipped for three seconds with agitation in 300 ppm solution. A 1.27 to 1.91 cm square of cheesecloth with about 50 to 100 budworm eggs 0-24 hours old is also dipped in the test solution and placed on a leaf of the cotton plant, all being placed in the hood to dry. The leaf with the treated budworm eggs is removed from the plant and placed in a 226 g Dixie cup with a wet 5 cm piece of dental wick and covered with a lid. The other leaf is placed in a similar cup with a wick and a piece of cheesecloth infested with 50-100 newly hatched larvae is added before covering the cup with a lid. After three days at 80° F., 50% relative humidity, observations of egg hatch are made, as well as kill of newly hatched larvae, any inhibition of feeding, or interference of any sort with normal development.

Row | SMILES | Mortality Rating Southern Armyworm (Southern Armyworm; 10 ppm) | Mortality Rating Southern Armyworm (Southern Armyworm; 100 ppm) | Mortality Rating Southern Armyworm (Southern Armyworm; 1000 ppm) | Mortality Rating Tobacco Budworm 3rd Instar ([1]; 1000 ppm) | Mortality Rating Tobacco Budworm 1st Instar [2] | LC50 (Southern Armyworm; Spodoptera eridania, read-out: LC50 Southern Armyworm) [µg/mL] | Mortality Rating Tobacco Budworm 3rd Instar ([1]; 10 ppm) | Mortality Rating Tobacco Budworm 3rd Instar ([1]; 100 ppm) | reduced feeding (R) Southern Armyworm (Southern Armyworm; 100 ppm) | reduced feeding (R) Southern Armyworm (Southern Armyworm; 1000 ppm) | reduced feeding (R) Tobacco Budworm 3rd Instar ([1]; 1000 ppm) | reduced feeding (R) Tobacco Budworm 3rd Instar ([1]; 100 ppm)
1 | CNC(=O)N(N=Cc1ccc(OC(F)(F)C(F)F)cc1)C(=N)NN=Cc1ccc(OC(F)(F)C(F)F)cc1 [HCF2 CF2 O / HCF2 CF2 O / CH3 / H] | 0 (No effect) | 9 (100%) | 9 (100%) | 4 (46-55%) | – | – | – | – | – | – | – | –
2 | N=C(NN=Cc1ccc(Br)cc1)NN=Cc1ccc(Br)cc1 [Br / HNO3] | – | 5 (56-65%) | 9 (100%) | – | 0 (No effect) | – | – | – | – | – | – | –
3 | N=C(NN=Cc1ccc(OC(F)(F)C(F)F)cc1)N(N=Cc1ccc(OC(F)(F)C(F)F)cc1)C(=O)NCCCl [HCF2 CF2 O / HCF2 CF2 O / ClCH2 CH2 / H] | 0 (No effect) | 8 (86-99%) | 9 (100%) | 6 (66-75%) | – | 21 (≈ 34.8 µM) | 0 (No effect) | 0 (No effect) | – | – | – | –
4 | N=C(NN=Cc1ccc(Cl)cc1)NN=Cc1ccc(Cl)cc1 [Cl / HCl] | 0 (No effect) | 0 (No effect) | – | 0 (No effect) | – | – | – | – | R | R | – | –
5 | CN(C)C(=O)N(N=Cc1ccc(SC(F)(F)C(F)F)cc1)C(=N)NN=Cc1ccc(SC(F)(F)C(F)F)cc1 [HCF2 CF2 S / HCF2 CF2 S / CH3 / CH3] | 3 (36-45%) | 9 (100%) | 9 (100%) | 6 (66-75%) | – | – | 0 (No effect) | 6 (66-75%) | – | – | – | –
6 | CCN(CC)C(=O)N(N=Cc1ccc(OC(F)(F)F)cc1)C(=N)NN=Cc1ccc(OC(F)(F)F)cc1 [CF3 O / CF3 O / C2 H5 / C2 H5] | 0 (No effect) | 9 (100%) | 9 (100%) | 8 (86-99%) | – | – | – | – | – | – | – | –
7 | N=C(NN=Cc1ccc(C(F)(F)F)cc1)N(N=Cc1ccc(C(F)(F)F)cc1)C(=O)OCCCl [CF3 / CF3 / ClCH2 CH2, 3-[p-(trifluoromethyl)benzylidene]-2-{{[p-(trifluoromethyl)benzylidene]amino}amidino}carbazate ester] | 8 (86-99%) | 9 (100%) | 9 (100%) | 2 (26-35%) | – | – | – | 0 (No effect) | – | – | R | –
8 | N=C(NN=Cc1ccc2c(c1)OC(F)C(F)(F)O2)NN=Cc1ccc2c(c1)OC(F)C(F)(F)O2 (stereo not shown) [drawing 47 / B] | 0 (No effect) | – | 9 (100%) | 0 (No effect) | – | – | – | 0 (No effect) | – | – | R | R
9 | CCCOC(=O)N(N=Cc1ccc(SC(F)F)cc1)C(=N)NN=Cc1ccc(OC(F)F)cc1 [HCF2 S / HCF2 O / -n-C3 H7] | – | 0 (No effect) | 9 (100%) | 0 (No effect) | – | – | – | – | – | – | – | –
10 | N=C(NN=Cc1ccc(OC(F)(F)F)cc1)N(N=Cc1ccc(OC(F)(F)F)cc1)C(=O)OCC(Cl)(Cl)Cl [CF3 O / CF3 O / Cl3 CCH2] | 9 (100%) | 9 (100%) | 9 (100%) | 0 (No effect) | – | – | – | 1 (11-25%) | – | – | R | R
11 | COC(=O)N(N=Cc1ccc(C(F)(F)F)cc1)C(=N)NN=Cc1ccc(C(F)(F)F)cc1 [CF3 / CF3 / CH3] | 3 (36-45%) | 9 (100%) | 9 (100%) | 6 (66-75%) | – | – | – | – | – | – | – | –
